Test results: PMC5399005, “Degradation of lignin β‐aryl ether units in Arabidopsis thaliana expressing LigD, LigF and LigG from Sphingomonas paucimobilis SYK‐6” (Plant Biotechnology Journal, 2016)

Key:
Type in all cases: biochemical
LigG = target: T1, LigG (Sphingomonas paucimobilis, UniProt Q9WXJ9); test: LC-MS product detection with leaf extract of transgenic Arabidopsis; details: GS-HPV from LigF reaction mixture, GSH, 100 mM phosphate pH 7.5
T1 construct: codon-optimised, barley alpha-amylase signal peptide added, expressed in Arabidopsis (crude leaf extract)
T1 sequence (Q9WXJ9 1-265): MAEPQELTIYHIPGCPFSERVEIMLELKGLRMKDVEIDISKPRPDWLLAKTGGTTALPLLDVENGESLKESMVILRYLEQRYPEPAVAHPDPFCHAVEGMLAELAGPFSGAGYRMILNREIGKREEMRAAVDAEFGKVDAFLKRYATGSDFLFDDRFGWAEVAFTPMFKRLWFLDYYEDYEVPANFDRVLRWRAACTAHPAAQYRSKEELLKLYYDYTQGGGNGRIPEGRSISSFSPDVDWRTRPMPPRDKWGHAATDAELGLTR

LigD = target: T2, LigD (Sphingobium sp. SYK-6, UniProt Q01198); test: as above; details: 0.5 mM GGE, 1 mM NAD+, 1 mM GSH, 100 mM phosphate pH 7.5, room temperature, 16 h; product MPHPV
T2 sequence (Q01198 1-305): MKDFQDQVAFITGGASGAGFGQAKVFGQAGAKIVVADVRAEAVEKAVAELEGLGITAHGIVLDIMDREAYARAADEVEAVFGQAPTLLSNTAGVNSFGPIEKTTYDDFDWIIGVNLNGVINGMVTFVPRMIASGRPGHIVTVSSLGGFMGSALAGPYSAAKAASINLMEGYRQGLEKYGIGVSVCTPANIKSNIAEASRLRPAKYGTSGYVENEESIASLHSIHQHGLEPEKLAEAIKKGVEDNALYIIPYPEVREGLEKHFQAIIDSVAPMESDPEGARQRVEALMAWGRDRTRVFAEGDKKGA

LigF = target: T3, LigF (Sphingobium sp. SYK-6, UniProt P30347); test: LC-MS product detection with leaf extract of transgenic Arabidopsis (also E. coli extract); details: 0.5 mM MPHPV, 1 mM GSH, 1 mM NAD+, 100 mM phosphate pH 7.5, room temperature, 16 h; product GS-HPV
T3 construct: also pETSTREP in E. coli BL21(DE3)
T3 sequence (P30347 1-257): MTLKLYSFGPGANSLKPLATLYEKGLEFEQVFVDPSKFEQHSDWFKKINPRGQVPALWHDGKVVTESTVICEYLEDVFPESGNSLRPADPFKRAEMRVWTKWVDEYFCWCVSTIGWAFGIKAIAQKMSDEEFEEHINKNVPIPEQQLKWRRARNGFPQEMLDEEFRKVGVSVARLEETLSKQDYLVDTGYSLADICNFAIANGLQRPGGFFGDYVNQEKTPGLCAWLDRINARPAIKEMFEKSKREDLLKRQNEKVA

COc1cc(C(=O)C(CO)SC[C@H](NC(=O)CC[C@H](N)C(=O)O)C(=O)NCC(=O)O)ccc1O (stereo partly drawn) [GS-HPV]
LC-MS product detection with leaf extract of transgenic Arabidopsis (LigG): The reaction mixture obtained contained mainly GS‐HPV and was used to test for LigG activity

COc1cc(C(O)C(CO)Oc2ccccc2OC)ccc1O (stereo not drawn) [GGE]
LC-MS product detection with leaf extract of transgenic Arabidopsis (LigD): GGE, MPHPV and GS‐HPV were used as a substrate to monitor the catalytic function

COc1cc(C(=O)C(CO)Oc2ccccc2OC)ccc1O (stereo not drawn) [S4, MPHPV]
LC-MS product detection with leaf extract of transgenic Arabidopsis (also E. col) (LigF): produced enzymatically by incubation of MPHPV with protein extracts of Escherichia coli expressing LigF
